Results reported in patent US8546320B2, “Hsp9O-targeted anti-cancer chimeric peptide” (Kyoto University, priority 2008, dated 2013).
Where a SMILES comes first, the peptide text is derived from it.

Columns and labels:
[1] = tested on: U937; experiment: cells; format: cell-based, human; conditions: for killing effect compared with the wild-type peptide / Anti-cancer activity (% relative to wild-type peptide) / Decrease in cell survival rate (% relative to wild-type peptide): U937; for Anti-cancer activity (% relative to wild-type peptide) / Decrease in cell survival rate (% relative to wild-type peptide): wild-type peptide = 100%
Protocol: A total of 3×10^3 cells per well were inoculated onto a 96 well plate, and incubated in a medium containing 10% FBS with 100 μl of a peptide diluted stepwise at 37° C. for 48 to 72 hours. The survival rate of the cells was measured by using WST-8 solution (Cell Count Reagent SF; Nacalai Tesque, Inc.).

[2] = tested on: Caki-1; format: cell-based, human; conditions: Caki-1; wild-type peptide = 100%
[3] = tested on: cancer cells; experiment: Cell viability assay, summary statements on cancer cells; format: cell-based; conditions: single mutation in TPR or Antp region of Antp-TPR

Compound: CC[C@H](C)[C@H](NC(=O)[C@H](CCCNC(=N)N)NC(=O)[C@H](C)NC(=O)[C@H](Cc1ccc(O)cc1)NC(=O)[C@H](C)NC(=O)[C@H](CCCCN)NC(=O)[C@H](CCCCN)NC(=O)[C@H](CCCCN)NC(=O)[C@H](Cc1c[nH]c2ccccc12)NC(=O)[C@H](CCCCN)NC(=O)[C@H](CCSC)NC(=O)[C@H](CCCNC(=N)N)NC(=O)[C@H](CCCNC(=N)N)NC(=O)[C@H](CC(N)=O)NC(=O)[C@H](CCC(N)=O)NC(=O)[C@H](Cc1ccccc1)NC(=O)[C@H](Cc1c[nH]c2ccccc12)NC(=O)[C@@H](NC(=O)[C@H](CCCCN)NC(=O)[C@@H](NC(=O)[C@H](CCC(N)=O)NC(=O)[C@@H](N)CCCNC(=N)N)[C@@H](C)CC)[C@@H](C)CC)C(=O)NCC(=O)N[C@@H](CC(N)=O)C(=O)N[C@@H](CO)C(=O)N[C@@H](Cc1ccc(O)cc1)C(=O)N[C@@H](Cc1ccccc1)C(=O)N[C@@H](CCCNC(=N)N)C(=O)O [Antp-K12R] (H-RQIKIWFQNRRMKWKKKAYARIGNSYFR-OH; N-terminus and C-terminus assumed)
- Cell Survival Rate (%) [1]: 21.95%
- killing effect compared with the wild-type peptide [1]: increase in effect
- Anti-cancer activity (% relative to wild-type peptide) [1]: 101.68%
- Decrease in cell survival rate (% relative to wild-type peptide) [1]: 105.89%
- Anti-cancer activity (% relative to wild-type peptide) [2]: 90.20%
- Decrease in cell survival rate (% relative to wild-type peptide) [2]: 54.95%
- effect compared with the wild-type protein (summary of mutations) [3]: effect similar to that of the wild-type protein

Compound: CC[C@H](C)[C@H](NC(=O)[C@H](CCCNC(=N)N)NC(=O)[C@H](C)NC(=O)[C@H](Cc1ccc(O)cc1)NC(=O)[C@H](C)NC(=O)[C@H](CCCNC(=N)N)NC(=O)[C@H](CCCCN)NC(=O)[C@H](CCCCN)NC(=O)[C@H](Cc1c[nH]c2ccccc12)NC(=O)[C@H](CCCCN)NC(=O)[C@H](CCSC)NC(=O)[C@H](CCCNC(=N)N)NC(=O)[C@H](CCCNC(=N)N)NC(=O)[C@H](CC(N)=O)NC(=O)[C@H](CCC(N)=O)NC(=O)[C@H](Cc1ccccc1)NC(=O)[C@H](Cc1c[nH]c2ccccc12)NC(=O)[C@@H](NC(=O)[C@H](CCCCN)NC(=O)[C@@H](NC(=O)[C@H](CCC(N)=O)NC(=O)[C@@H](N)CCCNC(=N)N)[C@@H](C)CC)[C@@H](C)CC)C(=O)NCC(=O)N[C@@H](CC(N)=O)C(=O)N[C@@H](CO)C(=O)N[C@@H](Cc1ccc(O)cc1)C(=O)N[C@@H](Cc1ccccc1)C(=O)N[C@@H](CCCCN)C(=O)O [Antp-K1R] (H-RQIKIWFQNRRMKWKKRAYARIGNSYFK-OH; N-terminus and C-terminus assumed)
- Cell Survival Rate (%) [1]: 91.39%
- Anti-cancer activity (% relative to wild-type peptide) [1]: 11.22%
- Decrease in cell survival rate (% relative to wild-type peptide) [1]: 25.43%
- Anti-cancer activity (% relative to wild-type peptide) [2]: 35.81%
- Decrease in cell survival rate (% relative to wild-type peptide) [2]: 15.70%
- effect compared with the wild-type protein (summary of mutations) [3]: effective but with a lower effect than the wild-type protein

Compound: CC[C@H](C)[C@H](NC(=O)[C@H](CCCNC(=N)N)NC(=O)[C@H](C)NC(=O)[C@H](Cc1ccc(O)cc1)NC(=O)[C@H](C)NC(=O)[C@H](C)NC(=O)[C@H](CCCCN)NC(=O)[C@H](CCCCN)NC(=O)[C@H](Cc1c[nH]c2ccccc12)NC(=O)[C@H](CCCCN)NC(=O)[C@H](CCSC)NC(=O)[C@H](CCCNC(=N)N)NC(=O)[C@H](CCCNC(=N)N)NC(=O)[C@H](CC(N)=O)NC(=O)[C@H](CCC(N)=O)NC(=O)[C@H](Cc1ccccc1)NC(=O)[C@H](Cc1c[nH]c2ccccc12)NC(=O)[C@@H](NC(=O)[C@H](CCCCN)NC(=O)[C@@H](NC(=O)[C@H](CCC(N)=O)NC(=O)[C@@H](N)CCCNC(=N)N)[C@@H](C)CC)[C@@H](C)CC)C(=O)NCC(=O)N[C@@H](CC(N)=O)C(=O)N[C@@H](CO)C(=O)N[C@@H](Cc1ccc(O)cc1)C(=O)N[C@@H](Cc1ccccc1)C(=O)N[C@@H](CCCCN)C(=O)O [Antp-K1A] (H-RQIKIWFQNRRMKWKKAAYARIGNSYFK-OH; N-terminus and C-terminus assumed)
- Cell Survival Rate (%) [1]: 93.55%
- Anti-cancer activity (% relative to wild-type peptide) [1]: 8.41%
- Decrease in cell survival rate (% relative to wild-type peptide) [1]: 24.84%
- Anti-cancer activity (% relative to wild-type peptide) [2]: 20.29%
- Decrease in cell survival rate (% relative to wild-type peptide) [2]: 13.04%
- effect compared with the wild-type protein (summary of mutations) [3]: effective but with a lower effect than the wild-type protein

Compound: CC[C@H](C)[C@H](NC(=O)[C@H](CCCNC(=N)N)NC(=O)[C@H](C)NC(=O)[C@H](Cc1ccc(O)cc1)NC(=O)[C@H](C)NC(=O)[C@H](CCCCN)NC(=O)[C@H](CCCCN)NC(=O)[C@H](CCCCN)NC(=O)[C@H](Cc1c[nH]c2ccccc12)NC(=O)[C@H](CCCCN)NC(=O)[C@H](CCSC)NC(=O)[C@H](CCCNC(=N)N)NC(=O)[C@H](CCCNC(=N)N)NC(=O)[C@H](CC(N)=O)NC(=O)[C@H](CCC(N)=O)NC(=O)[C@H](Cc1ccccc1)NC(=O)[C@H](Cc1c[nH]c2ccccc12)NC(=O)[C@@H](NC(=O)[C@H](CCCCN)NC(=O)[C@@H](NC(=O)[C@H](CCC(N)=O)NC(=O)[C@@H](N)CCCNC(=N)N)[C@@H](C)CC)[C@@H](C)CC)C(=O)NCC(=O)N[C@@H](CC(N)=O)C(=O)N[C@@H](CO)C(=O)N[C@@H](CO)C(=O)N[C@@H](Cc1ccccc1)C(=O)N[C@@H](CCCCN)C(=O)O [Antp-Y10S] (H-RQIKIWFQNRRMKWKKKAYARIGNSSFK-OH; N-terminus and C-terminus assumed)
- Cell Survival Rate (%) [1]: 28.05%
- Anti-cancer activity (% relative to wild-type peptide) [1]: 93.73%
- Decrease in cell survival rate (% relative to wild-type peptide) [1]: 82.83%
- Anti-cancer activity (% relative to wild-type peptide) [2]: 74.56%
- Decrease in cell survival rate (% relative to wild-type peptide) [2]: 31.97%
- effect compared with the wild-type protein (summary of mutations) [3]: effect similar to that of the wild-type protein

Compound: CC[C@H](C)[C@H](NC(=O)[C@H](CCCNC(=N)N)NC(=O)[C@H](C)NC(=O)[C@H](Cc1ccc(O)cc1)NC(=O)[C@H](C)NC(=O)[C@H](CCCCN)NC(=O)[C@H](CCCCN)NC(=O)[C@H](CCCCN)NC(=O)[C@H](Cc1c[nH]c2ccccc12)NC(=O)[C@H](CCCCN)NC(=O)[C@H](CCSC)NC(=O)[C@H](CCCNC(=N)N)NC(=O)[C@H](CCCNC(=N)N)NC(=O)[C@H](CC(N)=O)NC(=O)[C@H](CCC(N)=O)NC(=O)[C@H](Cc1ccccc1)NC(=O)[C@H](Cc1c[nH]c2ccccc12)NC(=O)[C@@H](NC(=O)[C@H](CCCCN)NC(=O)[C@@H](NC(=O)[C@H](CCC(N)=O)NC(=O)[C@@H](N)CCCNC(=N)N)[C@@H](C)CC)[C@@H](C)CC)C(=O)N[C@@H](C)C(=O)N[C@@H](CC(N)=O)C(=O)N[C@@H](CO)C(=O)N[C@@H](Cc1ccc(O)cc1)C(=O)N[C@@H](Cc1ccccc1)C(=O)N[C@@H](CCCCN)C(=O)O [Antp-G7A] (H-RQIKIWFQNRRMKWKKKAYARIANSYFK-OH; N-terminus and C-terminus assumed)
- Cell Survival Rate (%) [1]: 16.85%
- killing effect compared with the wild-type peptide [1]: increase in effect
- Anti-cancer activity (% relative to wild-type peptide) [1]: 108.32%
- Decrease in cell survival rate (% relative to wild-type peptide) [1]: 137.88%
- Anti-cancer activity (% relative to wild-type peptide) [2]: 96.23%
- Decrease in cell survival rate (% relative to wild-type peptide) [2]: 76.07%
- effect compared with the wild-type protein (summary of mutations) [3]: effect similar to that of the wild-type protein
